{
  "source": "patent US20200187527A1",
  "about": "“METHODS TO INCREASE SILAGE QUALITY IN CROPS” (Valent BioSciences LLC, priority 2013, published 2020)",
  "key": {"corn [1]": {"system": "corn", "experiment": "Example 1 field trial: corn silage quality after foliar RyzUp Smartgrass at V4", "format": "in vivo, Zea mays (corn)", "settings": "vs untreated Control; 3.2 g GA3/acre (8 g/ha) at V4", "experimental": "(§1) Field trials were conducted at various locations. Portions of the field were treated with RyzUp® Smartgrass (40% (w/v) GA3 (available from Valent BioSciences Corporation), while other parts of the field were not treated. RyzUp® Smartgrass applications were limited to applications between V3 and V6, with spray volumes for foliar applications ranging from 10-25 gallons/acre.\n(§2) Trials were harvested using commercial equipment at standard timings for corn silage. Both RyzUp® Smartgrass and untreated areas of the field were harvested separately in order to obtain biomass yield (ton/acre). Subsequently, the harvested plant material was used for producing silage.\n(§3) Representative samples were taken for subsequent analysis. Forage was analyzed by standard methods to determine quality parameters including dry matter, crude protein, Acid Detergent Fiber (ADF), Neutral Detergent Fiber (NDF), and starch data. Calculations were included for moisture, adjusted crude protein, Total Digestible Nutrients (TDN), Net Energy for Lactation (NEL), Net Energy for Gain (NEG) and protein solubility. This information was then entered into the MILK 2006 University of Wisconsin Corn Silage evaluation system. Calculations of the milk production, energy content and digestibility per ton of corn biomass were carried out using a calculation method described in the following references: Schwab, E. C., and R. D. Shaver. (2001); b) Schwab, E C et al. (2003); and c) Undersander, D J et al., (1993)\nModern corn hybrid varieties were grown in a field trial. RyzUp® Smartgrass (40% GA3) was applied at V4 growth stage at a rate of 3.2 g GA^3/acre (8 g/ha). In this trial, silage quality data were analyzed for each variety and the means were used to calculate milk production (Table 1). Percent moisture, crude protein, ADF and NDF were decreased while TDN, starch, and milk production were increased."}, "corn [2]": {"system": "corn", "experiment": "Example 2 field trial: corn silage quality after RyzUp Smartgrass at V5 under drought stress", "format": "in vivo, Zea mays (corn)", "settings": "vs untreated Control, 6.4 g GA3/acre (16 g/ha) at V5", "experimental": "as §1, §2, §3\nCorn grown in a field trial was treated at the V5 stage with RyzUp® Smartgrass (GA3 (w/v) 40%) at a rate of 6.4 g GA^3/acre (16 g/ha). Treatments were made in a spray volume of 15 gallons of water per acre with added surfactant. The overall conditions of this trial were drought stress both before and following application."}, "alfalfa": {"system": "alfalfa", "settings": "GA3 applications; cited from earlier work"}, "smooth bromegrass": {"system": "smooth bromegrass", "settings": "GA3 applications; cited from earlier work"}},
  "data": [
    {"smiles": "C=C1C[C@]23C[C@@]1(O)CC[C@H]2[C@@]12C=C[C@H](O)[C@@](C)(C(=O)O1)[C@H]2[C@@H]3C(=O)O", "note": "[GA3, gibberellin 3]", "values": [
      {"measurement": "% NDF, Percent Difference", "setting": "corn [1]", "result": "−2.7", "unit": "%"},
      {"measurement": "% Starch, Percent Difference", "setting": "corn [1]", "result": "+16.7%"},
      {"measurement": "% TDN, Percent Difference", "setting": "corn [1]", "result": "+1.2%"},
      {"measurement": "Milk (lbs/t), Percent Difference", "setting": "corn [1]", "result": "+2.6%"},
      {"measurement": "% NDF, Percent Difference", "setting": "corn [2]", "result": "−17.8", "unit": "%"},
      {"measurement": "% Starch, Percent Difference", "setting": "corn [2]", "result": "+55.4%"},
      {"measurement": "% TDN, Percent Difference", "setting": "corn [2]", "result": "+8%"},
      {"measurement": "dry weight", "setting": "alfalfa", "result": "dose-dependent increase"},
      {"measurement": "growth", "setting": "alfalfa", "result": "dose-dependent increase"},
      {"measurement": "in vitro digestible dry matter (IVDDM)", "setting": "alfalfa", "result": "decreased"},
      {"measurement": "dry weight", "setting": "smooth bromegrass", "result": "dose-dependent increase"},
      {"measurement": "growth", "setting": "smooth bromegrass", "result": "dose-dependent increase"},
      {"measurement": "in vitro digestible dry matter (IVDDM)", "setting": "smooth bromegrass", "result": "decreased"}
    ]}
  ]
}
